Experimental data as given in PubChem BioAssay (NCI).
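1) Cells in 96-well plates. 2) Compound, 48 h, 5 concentrations. 3) Linear interpolation between surrounding doses. 4) Unreached endpoint = highest concentration. Definition used: TGI = concentration required for complete inhibition of growth.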

Experiments:
Experiment in all cases: NCI anticancer screen, dose series, 48 h
[1] = test system: COLO 205 colon
[2] = test system: NCI-H226 lung
[3] = test system: MOLT-4 leukemia
[4] = test system: SR leukemia
[5] = test system: TK-10 renal
[6] = test system: RXF 393 renal
[7] = test system: UACC-62 melanoma
[8] = test system: SF-295 CNS
[9] = test system: HCC-2998 colon
[10] = test system: SK-MEL-5 melanoma

SMILES	TGI [1]	TGI [2]	TGI [3]	TGI [4]	TGI [5]	TGI [6]	TGI [7]	TGI [8]	TGI [9]	TGI [10]
Cc1c(Cl)cc(C(C)(C)C)c(O)c1Cc1c(C)c(Cl)cc(C(C)(C)C)c1O	2.48 µM	6.03 µM	3.34 µM	5.58 µM	10 µM	2.44 µM	7 µM	7.54 µM	3.33 µM	2.29 µM
NNC(=O)COc1nc(-c2cccs2)nc2ccc(I)cc12	70.9 µM	83.9 µM	> 100 µM	55.6 µM	44.8 µM	> 100 µM	45.1 µM	86.2 µM	63.9 µM	45 µM
